PubChem BioAssay (NCI)
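Abbreviation: GI50, concentration required for 50% inhibition of growth. The concentration for full growth arrest is given as TGI.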

Tests used:
Assay in all cases: NCI anticancer screen, dose series, 384-well format
[1] = system: SN12C renal
[2] = system: SK-MEL-2 melanoma
[3] = system: BT-549 breast
[4] = system: SF-268 CNS
[5] = system: SNB-75 CNS
[6] = system: COLO 205 colon
[7] = system: 786-0 renal
[8] = system: HT29 colon
[9] = system: SF-295 CNS
[10] = system: NCI-H226 lung
[11] = system: KM12 colon
[12] = system: SW-620 colon
[13] = system: M14 melanoma
[14] = system: HCT-15 colon
[15] = system: HL-60(TB) leukemia
[16] = system: MOLT-4 leukemia
[17] = system: MDA-MB-435 melanoma
[18] = system: CAKI-1 renal
[19] = system: A498 renal
[20] = system: OVCAR-5 ovarian
[21] = system: IGROV1 ovarian
[22] = system: HS 578T breast
[23] = system: MDA-MB-231 breast
[24] = system: EKVX NSCLC
[25] = system: UO-31 renal
[26] = system: OVCAR-3 ovarian
[27] = system: HCT-116 colon
[28] = system: OVCAR-8 ovarian
[29] = system: OVCAR-4 ovarian
[30] = system: MCF7 breast
[31] = system: SF-539 CNS
[32] = system: TK-10 renal
[33] = system: UACC-257 melanoma
[34] = system: U251 glioblastoma
[35] = system: SK-MEL-5 melanoma
[36] = system: HOP-92 NSCLC
[37] = system: NCI-H522 lung
[38] = system: PC-3 prostate
[39] = system: SK-MEL-28 melanoma
[40] = system: T-47D breast
[41] = system: SNB-19 CNS
[42] = system: MALME-3M melanoma
[43] = system: NCI-H23 lung
[44] = system: SK-OV-3 ovarian
[45] = system: NCI-H460 NSCLC
[46] = system: K-562 leukemia
[47] = system: A549 NSCLC
[48] = system: DU-145 prostate
[49] = system: ACHN renal
[50] = system: SR leukemia
[51] = system: RXF 393 renal
[52] = system: NCI-H322M lung
[53] = system: MDA-MB-468 breast
[54] = system: HOP-62 NSCLC
[55] = system: UACC-62 melanoma

**Q.** How did the GI50 [1] turn out when C=CC(=O)N1CCN([C@@H](CC2CC2)c2ccc([C@H](C)Nc3ncc4c(n3)N(CC)C(=O)OC4)cc2)CC1 was run?
**A.** The GI50 was 16.2 µM.

**Q.** What about the TGI [1] of the same molecule?
**A.** Its TGI is 29.8 µM.

**Q.** And the GI50 [2]?
**A.** Its GI50 is 10.3 µM.

**Q.** And the TGI [2]?
**A.** Its TGI is 22 µM.

**Q.** What about the GI50 [3] of the same molecule?
**A.** The GI50 was 5.83 µM.

**Q.** And the TGI [3]?
**A.** Its TGI is 18.6 µM.

**Q.** And the GI50 [4]?
**A.** Its GI50 is 14.4 µM.

**Q.** And the TGI [4]?
**A.** The TGI was 27.5 µM.

**Q.** And the GI50 [5]?
**A.** Its GI50 is 7.22 µM.

**Q.** And the TGI [5]?
**A.** Its TGI is 20 µM.

**Q.** And the GI50 [6]?
**A.** Its GI50 is 17.6 µM.

**Q.** And the TGI [6]?
**A.** The TGI was 31.5 µM.

**Q.** And the GI50 [7]?
**A.** The GI50 was 12.9 µM.

**Q.** What about the TGI [7] of the same molecule?
**A.** Its TGI is 25.7 µM.

**Q.** What about the GI50 [8] of the same molecule?
**A.** The GI50 was 14.8 µM.

**Q.** And the TGI [8]?
**A.** The TGI was 28 µM.

**Q.** What about the GI50 [9] of the same molecule?
**A.** Its GI50 is 35.3 µM.

**Q.** What about the TGI [9] of the same molecule?
**A.** The TGI was greater than 100 µM.

**Q.** What about the GI50 [10] of the same molecule?
**A.** The GI50 was 15.9 µM.

**Q.** What about the TGI [10] of the same molecule?
**A.** The TGI was 36.1 µM.

**Q.** What about the GI50 [11] of the same molecule?
**A.** The GI50 was 15.1 µM.

**Q.** And the TGI [11]?
**A.** The TGI was 28.5 µM.

**Q.** What about the GI50 [12] of the same molecule?
**A.** Its GI50 is 13.5 µM.

**Q.** And the TGI [12]?
**A.** Its TGI is 26.4 µM.

**Q.** What about the GI50 [13] of the same molecule?
**A.** Its GI50 is 14.3 µM.

**Q.** And the TGI [13]?
**A.** Its TGI is 27.3 µM.

**Q.** And the GI50 [14]?
**A.** The GI50 was 12 µM.

**Q.** What about the TGI [14] of the same molecule?
**A.** The TGI was 28.9 µM.

**Q.** And the GI50 [15]?
**A.** Its GI50 is 1.82 µM.

**Q.** What about the TGI [15] of the same molecule?
**A.** Its TGI is 3.32 µM.

**Q.** What about the GI50 [16] of the same molecule?
**A.** The GI50 was 1.89 µM.

**Q.** And the TGI [16]?
**A.** The TGI was 3.43 µM.

**Q.** And the GI50 [17]?
**A.** Its GI50 is 14.3 µM.

**Q.** What about the TGI [17] of the same molecule?
**A.** The TGI was 27.4 µM.

**Q.** What about the GI50 [18] of the same molecule?
**A.** The GI50 was 11.4 µM.

**Q.** And the TGI [18]?
**A.** The TGI was 23.6 µM.

**Q.** What about the GI50 [19] of the same molecule?
**A.** The GI50 was 12 µM.

**Q.** And the TGI [19]?
**A.** The TGI was 24.4 µM.

**Q.** What about the GI50 [20] of the same molecule?
**A.** The GI50 was 16.1 µM.

**Q.** And the TGI [20]?
**A.** Its TGI is 30.4 µM.

**Q.** And the GI50 [21]?
**A.** Its GI50 is 10.3 µM.

**Q.** And the TGI [21]?
**A.** Its TGI is 22.1 µM.

**Q.** What about the GI50 [22] of the same molecule?
**A.** The GI50 was 6.9 µM.

**Q.** What about the TGI [22] of the same molecule?
**A.** Its TGI is 19.6 µM.

**Q.** What about the GI50 [23] of the same molecule?
**A.** The GI50 was 13.9 µM.

**Q.** What about the TGI [23] of the same molecule?
**A.** Its TGI is 26.8 µM.

**Q.** What about the GI50 [24] of the same molecule?
**A.** The GI50 was 16.4 µM.

**Q.** What about the TGI [24] of the same molecule?
**A.** The TGI was greater than 100 µM.

**Q.** What about the GI50 [25] of the same molecule?
**A.** Its GI50 is 13.9 µM.

**Q.** And the TGI [25]?
**A.** Its TGI is 26.9 µM.

**Q.** And the GI50 [26]?
**A.** The GI50 was 10.2 µM.

**Q.** And the TGI [26]?
**A.** The TGI was 21.8 µM.

**Q.** And the GI50 [27]?
**A.** Its GI50 is 6.57 µM.

**Q.** What about the TGI [27] of the same molecule?
**A.** The TGI was 19.7 µM.

**Q.** What about the GI50 [28] of the same molecule?
**A.** Its GI50 is 12.7 µM.

**Q.** What about the TGI [28] of the same molecule?
**A.** Its TGI is 26.1 µM.

**Q.** What about the GI50 [29] of the same molecule?
**A.** The GI50 was 13.3 µM.

**Q.** What about the TGI [29] of the same molecule?
**A.** Its TGI is 26.1 µM.

**Q.** What about the GI50 [30] of the same molecule?
**A.** Its GI50 is 9.04 µM.

**Q.** What about the TGI [30] of the same molecule?
**A.** Its TGI is greater than 100 µM.

**Q.** What about the GI50 [31] of the same molecule?
**A.** Its GI50 is 11.4 µM.

**Q.** What about the TGI [31] of the same molecule?
**A.** Its TGI is 23.5 µM.

**Q.** What about the GI50 [32] of the same molecule?
**A.** Its GI50 is 4.36 µM.

**Q.** And the TGI [32]?
**A.** The TGI was 16.6 µM.

**Q.** And the GI50 [33]?
**A.** The GI50 was 13.8 µM.

**Q.** And the TGI [33]?
**A.** The TGI was 26.8 µM.

**Q.** What about the GI50 [34] of the same molecule?
**A.** The GI50 was 15.4 µM.

**Q.** What about the TGI [34] of the same molecule?
**A.** The TGI was 33.4 µM.

**Q.** And the GI50 [35]?
**A.** The GI50 was 13.3 µM.

**Q.** And the TGI [35]?
**A.** The TGI was 30.1 µM.

**Q.** And the GI50 [36]?
**A.** Its GI50 is 8.05 µM.

**Q.** What about the TGI [36] of the same molecule?
**A.** Its TGI is 20.7 µM.

**Q.** And the GI50 [37]?
**A.** The GI50 was 1.36 µM.

**Q.** And the TGI [37]?
**A.** The TGI was 4.12 µM.

**Q.** And the GI50 [38]?
**A.** The GI50 was 10.8 µM.

**Q.** And the TGI [38]?
**A.** Its TGI is 22.7 µM.

**Q.** What about the GI50 [39] of the same molecule?
**A.** Its GI50 is 16.6 µM.

**Q.** What about the TGI [39] of the same molecule?
**A.** The TGI was 30.2 µM.

**Q.** And the GI50 [40]?
**A.** The GI50 was 13.9 µM.

**Q.** What about the TGI [40] of the same molecule?
**A.** The TGI was 28 µM.

**Q.** What about the GI50 [41] of the same molecule?
**A.** The GI50 was 17.2 µM.

**Q.** And the TGI [41]?
**A.** The TGI was 31.1 µM.

**Q.** And the GI50 [42]?
**A.** Its GI50 is 19 µM.

**Q.** What about the TGI [42] of the same molecule?
**A.** The TGI was 33.1 µM.

**Q.** And the GI50 [43]?
**A.** Its GI50 is 15.1 µM.

**Q.** What about the TGI [43] of the same molecule?
**A.** Its TGI is 61 µM.

**Q.** And the GI50 [44]?
**A.** The GI50 was 17.9 µM.

**Q.** And the TGI [44]?
**A.** The TGI was 37.9 µM.

**Q.** And the GI50 [45]?
**A.** Its GI50 is 5.15 µM.

**Q.** What about the TGI [45] of the same molecule?
**A.** Its TGI is 17 µM.

**Q.** And the GI50 [46]?
**A.** Its GI50 is 3.7 µM.

**Q.** What about the TGI [46] of the same molecule?
**A.** The TGI was 16 µM.

**Q.** And the GI50 [47]?
**A.** Its GI50 is 25.3 µM.

**Q.** What about the TGI [47] of the same molecule?
**A.** The TGI was greater than 100 µM.

**Q.** What about the GI50 [48] of the same molecule?
**A.** The GI50 was 12.7 µM.

**Q.** What about the TGI [48] of the same molecule?
**A.** Its TGI is 25.3 µM.

**Q.** What about the GI50 [49] of the same molecule?
**A.** The GI50 was 13.9 µM.

**Q.** What about the TGI [49] of the same molecule?
**A.** The TGI was 26.8 µM.

**Q.** What about the GI50 [50] of the same molecule?
**A.** Its GI50 is 2.94 µM.

**Q.** What about the TGI [50] of the same molecule?
**A.** Its TGI is 8.8 µM.

**Q.** What about the GI50 [51] of the same molecule?
**A.** Its GI50 is 2.52 µM.

**Q.** What about the TGI [51] of the same molecule?
**A.** The TGI was 12.5 µM.

**Q.** And the GI50 [52]?
**A.** Its GI50 is 14 µM.

**Q.** And the TGI [52]?
**A.** The TGI was 27.3 µM.

**Q.** What about the GI50 [53] of the same molecule?
**A.** Its GI50 is 2.82 µM.

**Q.** What about the TGI [53] of the same molecule?
**A.** The TGI was 7.69 µM.

**Q.** And the GI50 [54]?
**A.** The GI50 was 10 µM.

**Q.** And the TGI [54]?
**A.** The TGI was 27.9 µM.

**Q.** What about the GI50 [55] of the same molecule?
**A.** The GI50 was 10.6 µM.

**Q.** What about the TGI [55] of the same molecule?
**A.** The TGI was 22.4 µM.
